Source: US20080039438A1, “1B-Methylcarbapenem Derivative and Process for the Preparation Thereof” (Korea Institute of Science and Technology, priority 2004, published 2008)
Values after ≈ are worked out from the molar mass of the structure shown.

Key:
Assay type in all cases: cell-based
Morganella morganii = assay: MIC against clinically isolated aerobic Gram-negative strains; details: 15 strains
[1] = tested on: Methicillin-sensitive Staphylococcus aureus; assay: MIC against clinically isolated aerobic Gram-positive strains; details: 33 strains
[2] = tested on: Pseudomonas aeruginosa 1771M; assay: MIC against standard strains (agar dilution); details: read-out: Minimum Inhibitory Concentration (MIC)
Enterococcus faecalis = assay: MIC against clinically isolated aerobic Gram-positive strains; details: 30 strains
[3] = tested on: Staphylococcus aureus 285; assay: MIC against standard strains (agar dilution); details: standard strain Staphylococcus aureus 285, 37° C., 18 to 20 hours, read-out: Minimum Inhibitory Concentration (MIC)
Acinetobacter baumannii = assay: MIC against clinically isolated aerobic Gram-negative strains; details: 30 strains
Citrobacter freundii = assay: as above; details: 14 strains
Clostridium perfringens = assay: microbe, parasite or virus in culture; details: for MIC50 / MIC90: Clostridium perfringens
Escherichia coli TEM = assay: MIC against standard strains (agar dilution); details: standard strain Escherichia coli TEM, 37° C., 18 to 20 hours, read-out: Minimum Inhibitory Concentration (MIC)
[4] = tested on: Staphylococcus aureus 503; assay: MIC against standard strains (agar dilution); details: standard strain Staphylococcus aureus 503, 37° C., 18 to 20 hours, read-out: Minimum Inhibitory Concentration (MIC)
Streptococcus pyogenes = assay: MIC against clinically isolated aerobic Gram-positive strains; details: 15 strains
Enterobacter cloacae = assay: MIC against clinically isolated aerobic Gram-negative strains; details: 29 strains
[5] = tested on: Staphylococcus aureus SG511; assay: MIC against standard strains (agar dilution); details: standard strain Staphylococcus aureus SG511, 37° C., 18 to 20 hours, read-out: Minimum Inhibitory Concentration (MIC)
Enterococcus faecium = assay: MIC against clinically isolated aerobic Gram-positive strains; details: clinically isolated Enterococcus faecium, 29 strains; for MIC50: read-out: MIC50; for MIC90: read-out: MIC90
Proteus vulgaris = assay: MIC against clinically isolated aerobic Gram-negative strains; details: 15 strains
[6] = tested on: Streptococcus pyogenes 308A; assay: MIC against standard strains (agar dilution); details: standard strain Streptococcus pyogenes 308A, 37° C., 18 to 20 hours, read-out: Minimum Inhibitory Concentration (MIC)
Peptostreptococcus spp. = assay: MIC against clinically isolated anaerobic Gram-positive strains; details: 27 strains
Bacteroides spp. = assay: MIC against clinically isolated anaerobic Gram-negative strains; details: 11 strains
Providentia sp. = assay: MIC against clinically isolated aerobic Gram-negative strains; details: 13 strains
Escherichia coli = assay: as above; details: 30 strains
Streptococcus agalactiae = assay: MIC against clinically isolated aerobic Gram-positive strains; details: 15 strains
Proteus mirabilis = assay: MIC against clinically isolated aerobic Gram-negative strains; details: 15 strains
Enterobacter cloacae P99 = assay: MIC against standard strains (agar dilution); details: standard strain Enterobacter cloacae P99, 37° C., 18 to 20 hours, read-out: Minimum Inhibitory Concentration (MIC)
Staphylococcus coagulase = assay: MIC against clinically isolated aerobic Gram-positive strains; details: for MIC50 / MIC90: Staphylococcus; for MIC Range: clinically isolated Staphylococcus coagulase, 22 strains
[7] = tested on: Pseudomonas aeruginosa 1592E; assay: MIC against standard strains (agar dilution); details: standard strain Pseudomonas aeruginosa 1592E, 37° C., 18 to 20 hours, read-out: Minimum Inhibitory Concentration (MIC)
Streptococcus pneumoniae = assay: MIC against clinically isolated aerobic Gram-positive strains; details: 22 strains
[8] = tested on: Streptococcus faecium MD 8b; assay: MIC against standard strains (agar dilution); details: Enterococcus faecium, MD8B, standard strain Streptococcus faecium MD 8b, 37° C., 18 to 20 hours, read-out: Minimum Inhibitory Concentration (MIC)
Klebsiella pneumoniae = assay: MIC against clinically isolated aerobic Gram-negative strains; details: 30 strains
Moraxella catarrhalis = assay: as above; details: 24 strains
Serratia marcescens = assay: as above; details: 14 strains
Escherichia coli 1507E = assay: MIC against standard strains (agar dilution); details: standard strain Escherichia coli 1507E, 37° C., 18 to 20 hours, read-out: Minimum Inhibitory Concentration (MIC)

## C[C@@H](O)[C@H]1C(=O)N2C(C(=O)O)=C(S[C@@H]3CN[C@H](/C=C/c4cc(C(=O)O)no4)C3)[C@H](C)[C@H]12 [Example, (1R,5S,6S,8R,3′S,5′S)-2-{5′-[(E)-2-(3-carboxylic acid or sodium carboxylate-5-isoxazolo)ethenyl]pyrrolidin-3′-ylthio}-6-(1-hydroxyethyl)-1-methylcarbapen-2-em-3-carboxylic acid]
Morganella morganii
  MIC50: 0.03 µg/mL
  MIC90: 0.06 µg/mL
  MIC Range: 0.03 to 0.12 µg/mL
[1]
  MIC50: 0.12 µg/mL
  MIC90: 0.12 µg/mL
  MIC Range: 0.06 to 0.12 µg/mL
[2]
  MIC: 0.391 µg/mL
Enterococcus faecalis
  MIC50: 8 µg/mL
  MIC90: 32 µg/mL
  MIC Range: 4 to 32 µg/mL
[3]
  MIC: 0.195 µg/mL
Acinetobacter baumannii
  MIC50: 8 µg/mL
  MIC90: 64 µg/mL
  MIC Range: 2 to 128 µg/mL
Citrobacter freundii
  MIC50: 0.03 µg/mL
  MIC90: 0.12 µg/mL
  MIC Range: 0.015 to 0.25 µg/mL
Clostridium perfringens
  MIC50: 0.06 µg/mL
  MIC90: 0.12 µg/mL
Escherichia coli TEM
  MIC: 0.025 µg/mL
[4]
  MIC: 0.098 µg/mL
Streptococcus pyogenes
  MIC50: < 8 ng/mL
  MIC90: < 8 ng/mL
  MIC Range: <8 ng/mL
Enterobacter cloacae
  MIC50: 0.12 µg/mL
  MIC90: 0.5 µg/mL
  MIC Range: 0.015 to 2 µg/mL
[5]
  MIC: 0.098 µg/mL
Enterococcus faecium
  MIC Range: 16 to 128 µg/mL
  MIC50: 128 µg/mL
  MIC90: 128 µg/mL
Proteus vulgaris
  MIC50: 0.06 µg/mL
  MIC90: 0.06 µg/mL
  MIC Range: 0.03 to 0.06 µg/mL
[6]
  MIC: 0.049 µg/mL
Peptostreptococcus spp.
  MIC50: 0.12 µg/mL
  MIC90: 4 µg/mL
  MIC Range: 0.06 to 4 µg/mL
Bacteroides spp.
  MIC50: 1 µg/mL
  MIC90: 1 µg/mL
  MIC Range: 1 to 2 µg/mL
Providentia sp.
  MIC50: 0.06 µg/mL
  MIC90: 8 µg/mL
  MIC Range: 0.008 to 8 µg/mL
Escherichia coli
  MIC50: 0.03 µg/mL
  MIC90: 0.25 µg/mL
  MIC Range: 0.008 to 2 µg/mL
Streptococcus agalactiae
  MIC50: 8 ng/mL
  MIC90: 0.015 µg/mL
  MIC Range: 8 to 15 ng/mL
Proteus mirabilis
  MIC50: 0.03 µg/mL
  MIC90: 0.06 µg/mL
  MIC Range: 0.015 to 0.06 µg/mL
Enterobacter cloacae P99
  MIC: 0.098 µg/mL
Staphylococcus coagulase
  MIC50: 0.12 µg/mL
  MIC90: 0.25 µg/mL
  MIC Range: 0.06 to 0.5 µg/mL
[7]
  MIC: 0.195 µg/mL
Streptococcus pneumoniae
  MIC50: 0.008 µg/mL
  MIC90: 0.12 µg/mL
  MIC Range: 8 to 250 ng/mL
[8]
  MIC: 12.5 µg/mL
Klebsiella pneumoniae
  MIC50: 0.03 µg/mL
  MIC90: 0.12 µg/mL
  MIC Range: 0.015 to 0.25 µg/mL
Moraxella catarrhalis
  MIC50: 0.03 µg/mL
  MIC90: 0.06 µg/mL
  MIC Range: 0.015 to 0.06 µg/mL
Serratia marcescens
  MIC50: 0.03 µg/mL
  MIC90: 16 µg/mL
  MIC Range: 0.03 to 16 µg/mL
Escherichia coli 1507E
  MIC: 0.025 µg/mL

## C[C@@H](O)[C@H]1C(=O)N2C(C(=O)O)=C(SCCN=CN)C[C@H]12 [IPM, Imipenem]
Morganella morganii
  MIC50: 1 µg/mL (≈ 3.34 µM)
  MIC90: 2 µg/mL (≈ 6.68 µM)
  MIC Range: 0.5 to 2 µg/mL
[1]
  MIC50: 0.015 µg/mL (≈ 0.0501 µM)
  MIC90: 0.03 µg/mL (≈ 0.1 µM)
  MIC Range: 0.015 to 0.06 µg/mL
[2]
  MIC: 0.195 µg/mL (≈ 0.651 µM)
Enterococcus faecalis
  MIC50: 1 µg/mL (≈ 3.34 µM)
  MIC90: 4 µg/mL (≈ 13.4 µM)
  MIC Range: 0.5 to 4 µg/mL
[3]
  MIC: 0.013 µg/mL (≈ 0.0434 µM)
Acinetobacter baumannii
  MIC50: 1 µg/mL (≈ 3.34 µM)
  MIC90: 8 µg/mL (≈ 26.7 µM)
  MIC Range: 0.25 to 32 µg/mL
Citrobacter freundii
  MIC50: 0.12 µg/mL (≈ 0.401 µM)
  MIC90: 0.5 µg/mL (≈ 1.67 µM)
  MIC Range: 0.06 to 0.5 µg/mL
Clostridium perfringens
  MIC50: 0.06 µg/mL (≈ 0.2 µM)
  MIC90: 0.12 µg/mL (≈ 0.401 µM)
Clostridium perfringens; clinically isolated anaerobic Clostridium perfringens, 13 strains
  MIC Range: 0.06 to 0.12 µg/mL
Escherichia coli TEM
  MIC: 0.098 µg/mL (≈ 0.327 µM)
[4]
  MIC: 0.007 µg/mL (≈ 0.0234 µM)
Streptococcus pyogenes
  MIC50: < 8 ng/mL
  MIC90: < 8 ng/mL
  MIC Range: <8 ng/mL
Enterobacter cloacae
  MIC50: 0.25 µg/mL (≈ 0.835 µM)
  MIC90: 1 µg/mL (≈ 3.34 µM)
  MIC Range: 0.12 to 1 µg/mL
[5]
  MIC: 0.013 µg/mL (≈ 0.0434 µM)
Enterococcus faecium
  MIC Range: 2 to 128 µg/mL
  MIC50: 128 µg/mL (≈ 428 µM)
  MIC90: 128 µg/mL (≈ 428 µM)
Proteus vulgaris
  MIC50: 1 µg/mL (≈ 3.34 µM)
  MIC90: 2 µg/mL (≈ 6.68 µM)
  MIC Range: 0.25 to 2 µg/mL
[6]
  MIC: 0.004 µg/mL (≈ 0.0134 µM)
Peptostreptococcus spp.
  MIC50: 0.06 µg/mL (≈ 0.2 µM)
  MIC90: 2 µg/mL (≈ 6.68 µM)
  MIC Range: 0.06 to 2 µg/mL
Bacteroides spp.
  MIC50: 0.5 µg/mL (≈ 1.67 µM)
  MIC90: 1 µg/mL (≈ 3.34 µM)
  MIC Range: 0.25 to 2 µg/mL
Providentia sp.
  MIC50: 2 µg/mL (≈ 6.68 µM)
  MIC90: 2 µg/mL (≈ 6.68 µM)
  MIC Range: 0.25 to 4 µg/mL
Escherichia coli
  MIC50: 0.12 µg/mL (≈ 0.401 µM)
  MIC90: 0.5 µg/mL (≈ 1.67 µM)
  MIC Range: 0.06 to 1 µg/mL
Streptococcus agalactiae
  MIC50: 8 ng/mL (≈ 0.0267 µM)
  MIC90: 0.015 µg/mL (≈ 0.0501 µM)
  MIC Range: 8 to 15 ng/mL
Proteus mirabilis
  MIC50: 2 µg/mL (≈ 6.68 µM)
  MIC90: 2 µg/mL (≈ 6.68 µM)
  MIC Range: 0.25 to 4 µg/mL
Enterobacter cloacae P99
  MIC: 0.098 µg/mL (≈ 0.327 µM)
Staphylococcus coagulase
  MIC50: 0.015 µg/mL (≈ 0.0501 µM)
  MIC90: 0.015 µg/mL (≈ 0.0501 µM)
  MIC Range: 0.008 to 0.03 µg/mL
[7]
  MIC: 0.781 µg/mL (≈ 2.61 µM)
Streptococcus pneumoniae
  MIC50: 0.12 µg/mL (≈ 0.401 µM)
  MIC90: 0.25 µg/mL (≈ 0.835 µM)
  MIC Range: 8 to 500 ng/mL
[8]
  MIC: 0.781 µg/mL (≈ 2.61 µM)
Klebsiella pneumoniae
  MIC50: 0.12 µg/mL (≈ 0.401 µM)
  MIC90: 0.5 µg/mL (≈ 1.67 µM)
  MIC Range: 0.06 to 1 µg/mL
Moraxella catarrhalis
  MIC50: 0.06 µg/mL (≈ 0.2 µM)
  MIC90: 0.06 µg/mL (≈ 0.2 µM)
  MIC Range: 0.008 to 0.25 µg/mL
Serratia marcescens
  MIC50: 0.25 µg/mL (≈ 0.835 µM)
  MIC90: 2 µg/mL (≈ 6.68 µM)
  MIC Range: 0.12 to 4 µg/mL
Escherichia coli 1507E
  MIC: 0.098 µg/mL (≈ 0.327 µM)
